Reference: patent US20100048723A1, “Compositions and Methods for Preventing or Treating Obesity In Animals” (priority 2007, published 2010)
Marks after values point to notes of the source that are not given here.

Tested on: canine genes
Experiment: Canine cell culture genomic assay: modification of gene expression in vitro (Affymetrix canine gene chips)
Format: cell-based
Parameters: key: those genes that are modified by capsaicin are identified by an asterix (*)
Details: canine cell lines CCL34, CRL1430, CCL183, CTAC; up or down regulation
Method: We have compiled a database of substances known to modify the expression of various canine genes in canine cells in vitro according to the following methods provided below and previously described (see, e.g., U.S. 2006-0200320 Al).
Test substances are assayed in two concentrations using the following canine cell lines: CCL34 (kidney), CRL1430 (thymus), CCL183 (bone) (all obtained from the American Tissue Culture Collection) and CTAC (thyroid) (see, Measurement of NK Activity in Effector Cells Purified from Canine Peripheral Lymphocytes, Veterinary Immunology and Immunopathology, 35 (1993) 239-25 1). Briefly, cells are cultured in OptiCell chambers according to conventional methods and the next day treated with test substance. The solvent used at the higher of the two concentrations is used as a control. The following day the cells are harvested for genomic assay.
RNA is isolated from the canine cultures using commercially available methods, e.g., an RNAeasy Mini Kit (Qiagen, Valencia, Calif.) according to the manufacturers instructions and conventional methods. The quality of the isolated RNA is analyzed using a RNA 6000 Nano Assay and an Agilent 2100 Bioanalyzer. The procedure is performed according to the manufacturer's instructions provided in the Reagent Kit Guide (see Edition November 2003, by Agilent Technologies) with the following modifications: during gel preparation, rather than separating the filtered gel into aliquots of 65 uL each, the stock filtered gel is kept in the original microcentrifuge tube and the 65 uL is aliquoted as needed; while loading the RNA 6000 Nano Marker, 1 uL of RNase-free water (instead of RNA 6000 Nano Marker) is added to each sample well that will not contain sample. When loading the RNA 6000 Ladder and samples, heat denature the samples and RNA 6000 Ladder for an additional 30 seconds (total of 2.5 minutes) at 71° C.; with regard to “Starting the Chip Run”, choose the “Eukaryote Total RNA Nano” option from the assay menu.
Gene expression is measured for the treatment cell lines and controls using Affymetrix canine gene chips Canine-1 and Canine-2 according to the manufacturer's instructions. Gene expression data is determined to be either “up” or “down”-regulated for any given treatment. The decision on whether a gene is “up” or “down” is based on the fold change, which is calculated as treatment intensity/control intensity for each individual probe. […] Also, a probe is considered significant for further scrutiny if it is called as “present” in only one of the conditions being compared (treatment or control) and is “absent” or “marginal” in the other and the fold change is significant according to the software used. Probes that appear to be regulated in opposite directions in the two treatments are excluded from further analysis. The raw data is analyzed using GeneSpring version 7.0 (GS) software (Agilent Corporation) and validated using the R-Bioconductor (RB) freeware. Both software packages are used to compute probe intensities from the CEL files generated by the Affymetrix Instrument. The Present/Absent/Marginal calls per probe and P-values are computed using the R-Bioconductor and GeneSpring software separately.
Two schemes are used for data analysis. First: “across cell lines” and “within individual cell lines.” In the first scheme, genes are selected for scoring provided they are found to be significant and common across all cell-lines. The “across cell lines” yields the highest confidence data with minimum noise and may provide the best possible clues as to which genes are affected by individual ingredients. In the second scheme, only those genes that show a significant fold change in the two treatments according to both software packages within an individual cell lines are scored.
Table 1A provided hereinabove is a list of canine genes the expression of which is modified in vitro in the presence of various compounds. […]

**Q.** `COc1cc(CNC(=O)CCCCC=CC(C)C)ccc1O` [capsaicin, 8-methyl-N-vanillyl-6-nonenamide] was tested. Which “expression of Complement component 4 modified in canine cells in vitro” value did it give?
**A.** Complement component 4 *

**Q.** And the “expression of Fragilis/homolog to rat interferon-inducible protein modified in canine cells in vitro” value?
**A.** protein*

**Q.** And the “expression of Homolog to Homo sapiens interferon-induced 35-kDa protein modified in canine cells in vitro” value?
**A.** kDa protein*

**Q.** What about the “expression of L-Plastin/lymphocyte cytosolic protein 1 modified in canine cells in vitro” value of the same compound?
**A.** L-Plastin/lymphocyte cytosolic protein 1*

**Q.** And the “expression of α Cytochrome b558/cytochrome b-245 modified in canine cells in vitro” value?
**A.** ^α Cytochrome b558/cytochrome b-245 *

**Q.** And the “expression of α Tubulin, 1 modified in canine cells in vitro” value?
**A.** ^α Tubulin, 1 *
